Measurements from PMC5218480 (PLoS ONE, 2017).

Test system: MV-4-11 cells
Experiment: Gene expression microarray analysis (Affymetrix PrimeView) and GSEA
Format: cell-based, human
Design: RFU PODN (11730768_x_at) / Fold change /veh PODN (11730768_x_at) / RFU LINC00158 (11744669_a_at) / Fold change /veh LINC00158 (11744669_a_at) / RFU DUSP10 (11751237_a_at) / Fold change /veh DUSP10 (11751237_a_at) / RFU ID3 (11757404_x_at) / Fold change /veh ID3 (11757404_x_at) / RFU PLEKHG5 (11737974_s_at) / Fold change /veh PLEKHG5 (11737974_s_at) / RFU LRRC4B (11730491_at) / Fold change /veh LRRC4B (11730491_at) / RFU GIMAP4 (11747438_a_at) / Fold change /veh GIMAP4 (11747438_a_at) / RFU KRT8 (11758183_x_at) / Fold change /veh KRT8 (11758183_x_at) / RFU CNN1 (11734310_a_at) / Fold change /veh CNN1 (11734310_a_at) / RFU VPS37D (11726825_at) / Fold change /veh VPS37D (11726825_at) / RFU C10orf10 (11716522_x_at) / Fold change /veh C10orf10 (11716522_x_at) / RFU KIR2DL2 /// KIR2DL4 /// KIR2DL5A /// KIR2DL5B /// KIR2DS1 /// KIR2DS2 /// KIR2DS3 /// KIR2DS4 /// KIR3DL3 /// KIR3DL3 /// KIR3DS1 (11738374_at) / Fold change /veh KIR2DL2 /// KIR2DL4 /// KIR2DL5A /// KIR2DL5B /// KIR2DS1 /// KIR2DS2 /// KIR2DS3 /// KIR2DS4 /// KIR3DL3 /// KIR3DL3 /// KIR3DS1 (11738374_at) / RFU C1QL1 (11718748_at) / Fold change /veh C1QL1 (11718748_at) / RFU TMPRSS4 (11747572_a_at) / Fold change /veh TMPRSS4 (11747572_a_at) / RFU HAMP (11756126_x_at) / Fold change /veh HAMP (11756126_x_at) / RFU RNFT2 (11725882_a_at) / Fold change /veh RNFT2 (11725882_a_at) / RFU NR4A2 (11747474_a_at) / Fold change /veh NR4A2 (11747474_a_at) / RFU ABCC12 (11746883_a_at) / Fold change /veh ABCC12 (11746883_a_at) / RFU TMEM136 (11760407_x_at) / Fold change /veh TMEM136 (11760407_x_at) / RFU CLDN22 /// WWC2 (11732394_at) / Fold change /veh CLDN22 /// WWC2 (11732394_at) / RFU HLA-DPB1 (11760878_x_at) / Fold change /veh HLA-DPB1 (11760878_x_at) / RFU SPINT1 (11716480_a_at) / Fold change /veh SPINT1 (11716480_a_at) / RFU GAP43 (11754022_s_at) / Fold change /veh GAP43 (11754022_s_at) / RFU A4GNT (11735810_at) / Fold change /veh A4GNT (11735810_at) / RFU PRB3 (11715151_x_at) / Fold change /veh PRB3 (11715151_x_at) / RFU TUBB4B (11761932_at) / Fold change /veh TUBB4B (11761932_at) / RFU CAPN14 (11732068_a_at) / Fold change /veh CAPN14 (11732068_a_at) / RFU TMCC2 (11721928_a_at) / Fold change /veh TMCC2 (11721928_a_at) / RFU IRGQ (11745062_a_at) / Fold change /veh IRGQ (11745062_a_at) / RFU FAM174B (11720279_a_at) / Fold change /veh FAM174B (11720279_a_at) / RFU TMPRSS4 (11748680_a_at) / Fold change /veh TMPRSS4 (11748680_a_at) / RFU FAM212B (11763350_a_at) / Fold change /veh FAM212B (11763350_a_at) / RFU PLEKHG5 (11743358_a_at) / Fold change /veh PLEKHG5 (11743358_a_at) / RFU ZSCAN30 (11745921_a_at) / Fold change /veh ZSCAN30 (11745921_a_at) / RFU CMKLR1 (11741424_a_at) / Fold change /veh CMKLR1 (11741424_a_at) / RFU LOC101060620 /// MAPK8IP1 (11723275_at) / Fold change /veh LOC101060620 /// MAPK8IP1 (11723275_at) / RFU SPTSSB (11747773_x_at) / Fold change /veh SPTSSB (11747773_x_at) / RFU PRSS12 (11739890_at) / Fold change /veh PRSS12 (11739890_at) / RFU BIN1 (11741810_x_at) / Fold change /veh BIN1 (11741810_x_at) / RFU WNT11 (11732464_a_at) / Fold change /veh WNT11 (11732464_a_at) / RFU C10orf10 (11716521_a_at) / Fold change /veh C10orf10 (11716521_a_at) / RFU C5orf56 (11738089_at) / Fold change /veh C5orf56 (11738089_at) / RFU CYB561 (11721691_x_at) / Fold change /veh CYB561 (11721691_x_at) / RFU ANKRD19P (11752326_a_at) / Fold change /veh ANKRD19P (11752326_a_at) / RFU OR2T12 /// OR2T33 /// OR2T8 (11738714_s_at) / Fold change /veh OR2T12 /// OR2T33 /// OR2T8 (11738714_s_at) / RFU VCAN (11748164_a_at) / Fold change /veh VCAN (11748164_a_at) / RFU JSRP1 (11732532_at) / Fold change /veh JSRP1 (11732532_at) / RFU KRTAP10-11 (11738290_x_at) / Fold change /veh KRTAP10-11 (11738290_x_at) / RFU MYO3A (11730013_a_at) / Fold change /veh MYO3A (11730013_a_at) / RFU EBF3 (11725865_a_at) / Fold change /veh EBF3 (11725865_a_at) / RFU CAMK2N1 (11719241_x_at) / Fold change /veh CAMK2N1 (11719241_x_at) / RFU C5orf56 (11738088_a_at) / Fold change /veh C5orf56 (11738088_a_at) / RFU OLFML3 (11715873_a_at) / Fold change /veh OLFML3 (11715873_a_at) / RFU LOC100653217 /// NTM (11731650_a_at) / Fold change /veh LOC100653217 /// NTM (11731650_a_at) / RFU MAPK11 (11762145_a_at) / Fold change /veh MAPK11 (11762145_a_at) / RFU FIZ1 (11724087_x_at) / Fold change /veh FIZ1 (11724087_x_at) / RFU OASL (11726364_x_at) / Fold change /veh OASL (11726364_x_at) / RFU SOX15 (11748057_x_at) / Fold change /veh SOX15 (11748057_x_at) / RFU CD79A (11719716_a_at) / Fold change /veh CD79A (11719716_a_at) / RFU HIST1H1D (11736915_at) / Fold change /veh HIST1H1D (11736915_at) / RFU CASKIN2 (11723855_a_at) / Fold change /veh CASKIN2 (11723855_a_at) / RFU LOC730098 (11760151_x_at) / Fold change /veh LOC730098 (11760151_x_at) / RFU OR4N2 (11742367_at) / Fold change /veh OR4N2 (11742367_at) / RFU PRRT2 (11749266_a_at) / Fold change /veh PRRT2 (11749266_a_at) / RFU SNX32 (11753110_a_at) / Fold change /veh SNX32 (11753110_a_at) / RFU CDHR5 (11726645_a_at) / Fold change /veh CDHR5 (11726645_a_at) / RFU RCAN1 (11760418_a_at) / Fold change /veh RCAN1 (11760418_a_at) / RFU FAM167A (11723789_a_at) / Fold change /veh FAM167A (11723789_a_at) / RFU FAM26E (11764081_at) / Fold change /veh FAM26E (11764081_at) / RFU ISYNA1 (11749810_s_at) / Fold change /veh ISYNA1 (11749810_s_at) / RFU ACY1 (11761880_at) / Fold change /veh ACY1 (11761880_at) / RFU 11764098_at / Fold change /veh 11764098_at / RFU SAMD14 (11745864_x_at) / Fold change /veh SAMD14 (11745864_x_at) / RFU NPB (11741838_a_at) / Fold change /veh NPB (11741838_a_at) / RFU TMPRSS6 (11731388_a_at) / Fold change /veh TMPRSS6 (11731388_a_at) / RFU KRTAP10-2 (11738614_at) / Fold change /veh KRTAP10-2 (11738614_at) / RFU ARHGAP8 /// PRR5-ARHGAP8 (11727945_x_at) / Fold change /veh ARHGAP8 /// PRR5-ARHGAP8 (11727945_x_at) / RFU KRTAP5-7 /// NADSYN1 (11734609_at) / Fold change /veh KRTAP5-7 /// NADSYN1 (11734609_at) / RFU RASL12 (11751679_a_at) / Fold change /veh RASL12 (11751679_a_at) / RFU CDKN2B (11736163_a_at) / Fold change /veh CDKN2B (11736163_a_at) / RFU PRF1 (11729649_at) / Fold change /veh PRF1 (11729649_at) / RFU, ZNF638 /// ZNF638-IT1 / Fold change vs veh, ZNF638 /// ZNF638-IT1 / RFU, PANK3 / Fold change vs veh, PANK3 / RFU, SH3YL1 / Fold change vs veh, SH3YL1 / RFU, ZEB2 / Fold change vs veh, ZEB2 / RFU, NRIP1 / Fold change vs veh, NRIP1 / RFU, PTTG1IP / Fold change vs veh, PTTG1IP / RFU, CAPN2 / Fold change vs veh, CAPN2 / RFU, MED14 / Fold change vs veh, MED14 / RFU, SNORA58 / Fold change vs veh, SNORA58 / RFU, C1orf63 / Fold change vs veh, C1orf63 / RFU, LRRFIP1 / Fold change vs veh, LRRFIP1 / RFU, NDUFAF7 / Fold change vs veh, NDUFAF7 / RFU, SLC12A2 / Fold change vs veh, SLC12A2 / RFU, IBTK / Fold change vs veh, IBTK / RFU, ESF1 / Fold change vs veh, ESF1 / Fold change vs veh, TMEM50B / RFU, TAOK1 / Fold change vs veh, TAOK1 / RFU, ACBD3 / Fold change vs veh, ACBD3 / RFU, TMA16 / Fold change vs veh, TMA16 / RFU, RWDD3 / Fold change vs veh, RWDD3 / RFU, BCAT1 / Fold change vs veh, BCAT1 / RFU, EDEM3 / Fold change vs veh, EDEM3 / RFU, TMEM33 / Fold change vs veh, TMEM33 / RFU, WDR75 / Fold change vs veh, WDR75 / RFU, AHCTF1 / Fold change vs veh, AHCTF1 / RFU, TFRC / Fold change vs veh, TFRC / RFU, ZDHHC17 / Fold change vs veh, ZDHHC17 / RFU, NOM1 / Fold change vs veh, NOM1 / RFU, ARL8B / Fold change vs veh, ARL8B / RFU, ZBTB11 / Fold change vs veh, ZBTB11 / RFU, TAMM41 / Fold change vs veh, TAMM41 / RFU, KIAA1704 /// LOC100996395 / Fold change vs veh, KIAA1704 /// LOC100996395 / RFU, ING1 / Fold change vs veh, ING1 / RFU, TRMT61B / Fold change vs veh, TRMT61B / RFU, FUBP3 / Fold change vs veh, FUBP3 / RFU, TP53 / Fold change vs veh, TP53 / RFU, TNKS2 / Fold change vs veh, TNKS2 / RFU, ZFP14 / Fold change vs veh, ZFP14 / RFU, ACTR2 / Fold change vs veh, ACTR2 / RFU, PPP3R1 / Fold change vs veh, PPP3R1 / RFU, PIK3R1 / Fold change vs veh, PIK3R1 / RFU, HNRNPA1 / Fold change vs veh, HNRNPA1 / RFU, RNF170 / Fold change vs veh, RNF170 / RFU, ZNF28 / Fold change vs veh, ZNF28 / RFU, RNGTT / Fold change vs veh, RNGTT / RFU, OGT / Fold change vs veh, OGT / RFU, BRD1 / Fold change vs veh, BRD1 / RFU, MARS / Fold change vs veh, MARS / RFU, ZNF655 / Fold change vs veh, ZNF655 / RFU, FAHD1 / Fold change vs veh, FAHD1 / RFU, BDP1 / Fold change vs veh, BDP1 / RFU, LRRCC1 / Fold change vs veh, LRRCC1 / RFU, ARID1A / Fold change vs veh, ARID1A / RFU, ZNF146 / Fold change vs veh, ZNF146 / RFU, ZNF330 / Fold change vs veh, ZNF330 / RFU, GPN3 / Fold change vs veh, GPN3 / RFU, C9orf123 / Fold change vs veh, C9orf123 / RFU, N4BP2L2 / Fold change vs veh, N4BP2L2 / RFU, ARFIP1 / Fold change vs veh, ARFIP1 / RFU, FAM179B / Fold change vs veh, FAM179B / RFU, BCL10 / Fold change vs veh, BCL10 / RFU, UHRF1BP1L / Fold change vs veh, UHRF1BP1L / RFU, BET1 / Fold change vs veh, BET1 / RFU, CNOT2 / Fold change vs veh, CNOT2 / RFU, ZNF268 / Fold change vs veh, ZNF268 / Fold change vs veh, ZNF507 / RFU, DGCR2 / Fold change vs veh, DGCR2 / RFU, WDSUB1 / Fold change vs veh, WDSUB1 / Fold change vs veh, HSP90B1 /// MIR3652 / RFU, ADSS / Fold change vs veh, ADSS / RFU, GK / Fold change vs veh, GK / RFU, ZNF148 / Fold change vs veh, ZNF148 / RFU, TAF9 / Fold change vs veh, TAF9 / RFU, SLC1A5 / Fold change vs veh, SLC1A5 / RFU, SLMO2 / Fold change vs veh, SLMO2 / RFU, ABCC4 / Fold change vs veh, ABCC4 / RFU, LOC101060439 /// RAP1B / Fold change vs veh, LOC101060439 /// RAP1B / RFU, RFX7 / Fold change vs veh, RFX7 / RFU, GTPBP10 / Fold change vs veh, GTPBP10 / RFU, CNEP1R1 / Fold change vs veh, CNEP1R1 / RFU, BIVM-ERCC5 /// ERCC5 / Fold change vs veh, BIVM-ERCC5 /// ERCC5 / RFU, ILF3 / Fold change vs veh, ILF3 / RFU 11762660_at / Fold change /veh 11762660_at / RFU VCAN (11757783_s_at) / Fold change /veh VCAN (11757783_s_at) / RFU DDX43 (11728927_at) / Fold change /veh DDX43 (11728927_at) / RFU KRT8 (11758188_x_at) / Fold change /veh KRT8 (11758188_x_at) / RFU NKD1 (11759106_at) / Fold change /veh NKD1 (11759106_at) / RFU SRD5A1 (11742802_a_at) / Fold change /veh SRD5A1 (11742802_a_at) / RFU TPSAB1 /// TPSB2 (11721975_s_at) / Fold change /veh TPSAB1 /// TPSB2 (11721975_s_at) / RFU GSTM3 (11746129_a_at) / Fold change /veh GSTM3 (11746129_a_at) / RFU IL23R (11737362_x_at) / Fold change /veh IL23R (11737362_x_at) / RFU TMEM51 (11727254_a_at) / Fold change /veh TMEM51 (11727254_a_at) / RFU PIWIL2 (11732686_x_at) / Fold change /veh PIWIL2 (11732686_x_at) / RFU ORM1 (11744905_x_at) / Fold change /veh ORM1 (11744905_x_at) / RFU CCDC152 (11743942_at) / Fold change /veh CCDC152 (11743942_at) / RFU ECM1 (11717891_a_at) / Fold change /veh ECM1 (11717891_a_at) / RFU IL23R (11748794_a_at) / Fold change /veh IL23R (11748794_a_at) / RFU TNFAIP8L3 (11732012_x_at) / Fold change /veh TNFAIP8L3 (11732012_x_at) / RFU MBOAT4 (11741988_at) / Fold change /veh MBOAT4 (11741988_at) / RFU 11764193_at / Fold change /veh 11764193_at / RFU TMEM53 (11763286_at) / Fold change /veh TMEM53 (11763286_at) / RFU MAGEB2 (11727129_at) / Fold change /veh MAGEB2 (11727129_at) / RFU TMEM200A (11744735_a_at) / Fold change /veh TMEM200A (11744735_a_at) / RFU CCDC152 (11751479_a_at) / Fold change /veh CCDC152 (11751479_a_at) / RFU FAM211A (11726209_a_at) / Fold change /veh FAM211A (11726209_a_at) / RFU RGS16 (11746705_a_at) / Fold change /veh RGS16 (11746705_a_at) / RFU VCAN (11755009_s_at) / Fold change /veh VCAN (11755009_s_at) / RFU RHOB (11743442_s_at) / Fold change /veh RHOB (11743442_s_at) / RFU RGS16 (11720943_a_at) / Fold change /veh RGS16 (11720943_a_at) / RFU RGS16 (11720944_at) / Fold change /veh RGS16 (11720944_at) / RFU, VPS4B / Fold change vs veh, VPS4B / RFU, CREB1 / Fold change vs veh, CREB1 / RFU, DNAJC13 / Fold change vs veh, DNAJC13 / RFU, GNAQ / Fold change vs veh, GNAQ / RFU, CDK5R1 / Fold change vs veh, CDK5R1 / RFU, ZRANB3 / Fold change vs veh, ZRANB3 / RFU, CUL4A / Fold change vs veh, CUL4A / RFU, CCNY / Fold change vs veh, CCNY / RFU, UFL1 / Fold change vs veh, UFL1 / RFU, COG3 / Fold change vs veh, COG3 / RFU, DIAPH2 / Fold change vs veh, DIAPH2 / RFU, SKA2 / Fold change vs veh, SKA2 / RFU, AFF3 / Fold change vs veh, AFF3 / RFU, LMF1 / Fold change vs veh, LMF1 / RFU, IPO11 / Fold change vs veh, IPO11 / RFU, DFFB / Fold change vs veh, DFFB / RFU, FOXP1 / Fold change vs veh, FOXP1 / RFU, CARD8 / Fold change vs veh, CARD8 / RFU, STRN3 / Fold change vs veh, STRN3 / RFU, ADK / Fold change vs veh, ADK / RFU, RASSF2 / Fold change vs veh, RASSF2 / RFU, WIPF1 / Fold change vs veh, WIPF1 / RFU, LARP1B / Fold change vs veh, LARP1B / RFU, RASA1 / Fold change vs veh, RASA1 / RFU, RB1 / Fold change vs veh, RB1 / RFU, PPFIA1 / Fold change vs veh, PPFIA1 / RFU, MAT2A / Fold change vs veh, MAT2A / RFU, CCT5 / Fold change vs veh, CCT5 / RFU, WDR92 / Fold change vs veh, WDR92 / RFU, CUX1 / Fold change vs veh, CUX1 / RFU, TTC7A / Fold change vs veh, TTC7A / RFU, TMEM135 / Fold change vs veh, TMEM135 / RFU, DEPTOR / Fold change vs veh, DEPTOR / RFU, CPM / Fold change vs veh, CPM / RFU, DNAJB6 / Fold change vs veh, DNAJB6 / RFU, CACNA2D3 / Fold change vs veh, CACNA2D3 / RFU, DTX4 / Fold change vs veh, DTX4 / RFU, TFCP2 / Fold change vs veh, TFCP2 / RFU, GMCL1 /// GMCL1P1 / Fold change vs veh, GMCL1 /// GMCL1P1 / RFU, AEBP2 / Fold change vs veh, AEBP2 / RFU, SNHG1 /// SNORD22 /// SNORD25 /// SNORD26 /// SNORD27 /// SNORD28 /// SNORD29 /// SNORD31 / Fold change vs veh, SNHG1 /// SNORD22 /// SNORD25 /// SNORD26 /// SNORD27 /// SNORD28 /// SNORD29 /// SNORD31 / Fold change (Aza/veh), C12orf56 (ProbeSet 11735607_a_at) / Fold change (ACY-1035/veh), C12orf56 (ProbeSet 11735607_a_at) / Fold change (Aza/veh), FGFR1OP (ProbeSet 11751329_s_at) / Fold change (ACY-1035/veh), FGFR1OP (ProbeSet 11751329_s_at) / Fold change (Aza/veh), VPS36 (ProbeSet 11739960_a_at) / Fold change (ACY-1035/veh), VPS36 (ProbeSet 11739960_a_at) / RFU SYPL1 (11715823_x_at) / Fold change /veh SYPL1 (11715823_x_at) / RFU IGFBP7 (11715501_s_at) / Fold change /veh IGFBP7 (11715501_s_at) / RFU REEP3 (11722064_at) / Fold change /veh REEP3 (11722064_at) / RFU IGLL1 (11728026_x_at) / Fold change /veh IGLL1 (11728026_x_at): dose or concentration left out as unconfirmed
Details: MV-4-11 cells, 48 hours

Nc1ncn([C@@H]2O[C@H](CO)[C@@H](O)[C@H]2O)c(=O)n1 [azacitidine]
RFU TMPRSS6 (11731388_a_at): 68.82 RFU
